Key:
TP53-binding protein 1 [1] = molecular target: T1, TP53-binding protein 1 (Homo sapiens, UniProt Q12888); experiment: Inhibition of recombinant human N-terminal His6-tagged 53BP1 TTD (1484 to1603 residues) expressed in Escherichia coli BL21 (DE3) cells using Biotin-H4K2Ome2 as substrate preincubated for 30 mins followed by substrate addition and measured after 30 mins by AlphaScreen assay
TP53-binding protein 1 [2] = molecular target: T1, TP53-binding protein 1; experiment: Binding affinity to recombinant human N-terminal His6-tagged lysine dye- labeled 53BP1 TTD (1484 to1603 residues) expressed in Escherichia coli BL21 (DE3) cells incubated for 10 mins by MST assay
TP53-binding protein 1 [3] = molecular target: T1, TP53-binding protein 1; experiment: Binding affinity to recombinant human N-terminal His6-tagged 53BP1 TTD (1484 to1603 residues) expressed in Escherichia coli BL21 (DE3) cells by SPR analysis

T1 sequence (Q12888 whole entry, the tested form may be a part): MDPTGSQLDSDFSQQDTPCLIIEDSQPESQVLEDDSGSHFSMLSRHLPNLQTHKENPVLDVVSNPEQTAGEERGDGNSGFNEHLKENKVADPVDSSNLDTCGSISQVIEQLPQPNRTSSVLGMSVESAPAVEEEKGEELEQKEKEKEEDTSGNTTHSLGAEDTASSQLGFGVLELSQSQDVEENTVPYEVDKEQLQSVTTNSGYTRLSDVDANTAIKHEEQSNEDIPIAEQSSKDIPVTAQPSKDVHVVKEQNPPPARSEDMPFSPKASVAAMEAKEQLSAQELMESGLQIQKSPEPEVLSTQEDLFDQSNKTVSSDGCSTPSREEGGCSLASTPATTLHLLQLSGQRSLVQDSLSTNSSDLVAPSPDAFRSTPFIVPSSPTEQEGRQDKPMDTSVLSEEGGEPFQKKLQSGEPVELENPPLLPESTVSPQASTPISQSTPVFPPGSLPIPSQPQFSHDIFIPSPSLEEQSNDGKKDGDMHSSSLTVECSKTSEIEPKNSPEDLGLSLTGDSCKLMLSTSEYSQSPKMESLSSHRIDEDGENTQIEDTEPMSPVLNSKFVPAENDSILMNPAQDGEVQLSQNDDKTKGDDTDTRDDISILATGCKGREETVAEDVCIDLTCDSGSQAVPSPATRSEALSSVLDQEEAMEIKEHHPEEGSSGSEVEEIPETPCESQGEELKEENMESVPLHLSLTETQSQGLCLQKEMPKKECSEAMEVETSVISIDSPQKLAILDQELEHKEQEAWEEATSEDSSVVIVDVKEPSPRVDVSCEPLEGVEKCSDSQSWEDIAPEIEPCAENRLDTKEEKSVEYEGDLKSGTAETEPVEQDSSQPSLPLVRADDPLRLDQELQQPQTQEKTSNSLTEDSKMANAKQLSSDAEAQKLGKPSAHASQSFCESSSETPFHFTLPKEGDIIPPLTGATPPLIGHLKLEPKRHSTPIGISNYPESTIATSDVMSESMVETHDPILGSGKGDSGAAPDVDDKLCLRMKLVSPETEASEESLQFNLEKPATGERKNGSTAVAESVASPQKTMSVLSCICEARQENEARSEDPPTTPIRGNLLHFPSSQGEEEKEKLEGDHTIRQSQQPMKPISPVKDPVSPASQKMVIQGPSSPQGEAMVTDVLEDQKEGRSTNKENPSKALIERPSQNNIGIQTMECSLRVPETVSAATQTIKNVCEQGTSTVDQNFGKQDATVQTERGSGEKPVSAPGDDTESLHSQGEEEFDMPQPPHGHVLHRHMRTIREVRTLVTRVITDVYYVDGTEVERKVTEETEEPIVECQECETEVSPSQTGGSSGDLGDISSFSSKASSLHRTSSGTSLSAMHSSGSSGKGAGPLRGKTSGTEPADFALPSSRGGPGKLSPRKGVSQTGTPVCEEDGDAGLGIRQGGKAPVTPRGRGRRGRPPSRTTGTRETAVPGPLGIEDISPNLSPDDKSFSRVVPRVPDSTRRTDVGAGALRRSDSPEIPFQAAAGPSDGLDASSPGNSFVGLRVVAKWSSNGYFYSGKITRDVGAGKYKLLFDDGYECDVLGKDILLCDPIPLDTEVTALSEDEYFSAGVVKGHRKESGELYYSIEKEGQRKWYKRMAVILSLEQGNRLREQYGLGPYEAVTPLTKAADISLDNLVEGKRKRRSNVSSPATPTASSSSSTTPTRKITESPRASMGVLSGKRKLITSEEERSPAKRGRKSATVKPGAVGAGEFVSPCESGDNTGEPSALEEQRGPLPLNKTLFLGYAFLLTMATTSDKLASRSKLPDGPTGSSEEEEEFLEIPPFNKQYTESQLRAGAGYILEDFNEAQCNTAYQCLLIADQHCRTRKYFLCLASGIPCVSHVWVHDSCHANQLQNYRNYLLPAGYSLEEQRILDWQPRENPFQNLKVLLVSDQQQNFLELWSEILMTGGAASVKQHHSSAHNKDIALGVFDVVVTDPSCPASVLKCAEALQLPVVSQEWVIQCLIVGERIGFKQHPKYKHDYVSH

Compound | IC50 (TP53-binding protein 1 [1]) [µM] | Kd (TP53-binding protein 1 [2]) [µM] | Kd (TP53-binding protein 1 [3]) [µM]
CCN(CC)c1cc(C)c2cc(N(C)C(=O)/C=C/c3ccco3)ccc2n1 | 17.8 | – | –
CCN(CC)c1cc(C)c2cc(NC(=O)/C=C/c3ccc4ccoc4c3)ccc2n1 | > 50 | – | –
CN(C)c1ccc2cc(NC(=O)/C=C/c3cccc4cccnc34)ccc2n1 | > 50 | – | –
CCN(CC)c1cc(C)c2cc(NC(=O)/C=C/c3ccccn3)ccc2n1 | 31.3 | – | –
O=C(/C=C/c1ccco1)Nc1cccc2ncccc12 | > 50 | – | –

The remaining lines, values ahead:

IC50 (TP53-binding protein 1 [1]) [µM] | Kd (TP53-binding protein 1 [2]) [µM] | Kd (TP53-binding protein 1 [3]) [µM] | Compound
1.69 | 2.69 | 2.7 | CCN(CC)c1cc(C)c2cc(NC(=O)/C=C/c3ccco3)ccc2n1
15.1 | – | – | Cc1cc(N2CCCCC2)nc2ccc(NC(=O)/C=C/c3ccco3)cc12
4.2 | – | – | Cc1cc(N(C)C)nc2ccc(NC(=O)/C=C/c3ccco3)cc12
22.3 | – | – | Cc1cc2cc(NC(=O)/C=C/c3ccco3)ccc2[nH]1

Source: ChEMBL document CHEMBL4680356, “Discovery of a novel 53BP1 inhibitor through AlphaScreen-based high-throughput screening” (Bioorg Med Chem, 2021)
